Results: patent US10828315B2 (Madrigal Pharmaceuticals, Inc., priority 2013, dated 2020)

Experiments:
[1] = tested on: human SCLC tumor xenografts; assay: Antitumor activity in human SCLC tumor xenografts; format: in vivo, mice
[2] = Metabolite profiling and identification; format: in vitro ADME; parameters: key: —: Not detected; details: for Metabolite Hydrolysis (SN-38): M+1 393.3; for Metabolite Hydrolysis (SN-38) + H2O (carboxylate form): M+1 411.3; for Metabolite Hydrolysis (SDC-TRAP-0062): M+1 462.3; for Metabolite Hydrolysis (SDC-TRAP-0062) + N-dealkylation + glucuronide: M+1 527.3; for Metabolite Hydrolysis (SN-38) + glucuronidation: M+1 569.3; for Metabolite Hydrolysis (SN-38) + hydroxylation + glucuronidation: M+1 585.3; for Metabolite Hydrolysis (SDC-TRAP-0062) + glucuronidation: M+1 638.3; for Metabolite Hydrolysis (SDC-TRAP-0062) + oxidation + glucuronide: M+1 652.3; for Metabolite Hydrolysis (SDC-TRAP-0062) + di-oxidation + glucuronide: M+1 668.3; for Metabolite Hydrolysis (SDC-TRAP-0062) + H2O (ring opened) + glucuronide: M+1 670.3; for Metabolite Hydroxylation: M+1 896.3; for Metabolite Carboxylate form: M+1 898.3; for Metabolite Di-hydroxylation: M+1 912.4; for Metabolite Glucuronidation: M+1 1056.4
Excerpt: Metabolite Profiling and Identification: Metabolite profiling/identification for SDC-TRAP-0063 (M+1:880.3)

CCc1c2c(nc3ccc(OC(=O)N4CCC(CCn5ccc6cc(-n7c(O)nnc7-c7cc(C(C)C)c(O)cc7O)ccc65)CC4)cc13)-c1cc3c(c(=O)n1C2)COC(=O)[C@]3(O)CC [SDC-TRAP-0063, 4,11-diethyl-4-hydroxy-3,14-dioxo-3,4,12,14-tetrahydro-1H-pyrano[3′,4′:6,7]indolizino[1,2-b]quinolin-9-yl 4-(2-(5-(3-(2,4-dihydroxy-5-isopropylphenyl)-5-hydroxy-4H-1,2,4-triazol-4-yl)-1H-indol-1-yl)ethyl)piperidine-1-carboxylate]
tolerability ([1]; SCLC xenografts): very well tolerated | antitumor activity in SCLC xenografts (FIG. 19) ([1]; once weekly for three weeks, then drug-free period, SDC-TRAP-0063 100 and 150 mg/kg): remarkable and durable antitumor activity compared with irinotecan or ganetespib plus irinotecan | Metabolite Hydrolysis (SN-38) ([2]; Hepatocytes Dog): √ | Metabolite Hydrolysis (SN-38) + H2O (carboxylate form) ([2]; Hepatocytes Dog): — | Metabolite Hydrolysis (SDC-TRAP-0062) ([2]; Hepatocytes Dog): — | Metabolite Hydrolysis (SDC-TRAP-0062) + N-dealkylation + glucuronide ([2]; Hepatocytes Dog): — | Metabolite Hydrolysis (SN-38) + glucuronidation ([2]; Hepatocytes Dog): — | Metabolite Hydrolysis (SN-38) + hydroxylation + glucuronidation ([2]; Hepatocytes Dog): — | Metabolite Hydrolysis (SDC-TRAP-0062) + glucuronidation ([2]; Hepatocytes Dog): — | Metabolite Hydrolysis (SDC-TRAP-0062) + oxidation + glucuronide ([2]; Hepatocytes Dog): — | Metabolite Hydrolysis (SDC-TRAP-0062) + di-oxidation + glucuronide ([2]; Hepatocytes Dog): — | Metabolite Hydrolysis (SDC-TRAP-0062) + H2O (ring opened) + glucuronide ([2]; Hepatocytes Dog): — | Metabolite Hydroxylation ([2]; Hepatocytes Dog): √ | Metabolite Carboxylate form ([2]; Hepatocytes Dog): √ | Metabolite Di-hydroxylation ([2]; Hepatocytes Dog): √ | Metabolite Glucuronidation ([2]; Hepatocytes Dog): √ | Metabolite Hydrolysis (SN-38) ([2]; Hepatocytes Human): — | Metabolite Hydrolysis (SN-38) + H2O (carboxylate form) ([2]; Hepatocytes Human): — | Metabolite Hydrolysis (SDC-TRAP-0062) ([2]; Hepatocytes Human): — | Metabolite Hydrolysis (SDC-TRAP-0062) + N-dealkylation + glucuronide ([2]; Hepatocytes Human): — | Metabolite Hydrolysis (SN-38) + glucuronidation ([2]; Hepatocytes Human): √ | Metabolite Hydrolysis (SN-38) + hydroxylation + glucuronidation ([2]; Hepatocytes Human): — | Metabolite Hydrolysis (SDC-TRAP-0062) + glucuronidation ([2]; Hepatocytes Human): — | Metabolite Hydrolysis (SDC-TRAP-0062) + oxidation + glucuronide ([2]; Hepatocytes Human): — | Metabolite Hydrolysis (SDC-TRAP-0062) + di-oxidation + glucuronide ([2]; Hepatocytes Human): — | Metabolite Hydrolysis (SDC-TRAP-0062) + H2O (ring opened) + glucuronide ([2]; Hepatocytes Human): — | Metabolite Hydroxylation ([2]; Hepatocytes Human): — | Metabolite Carboxylate form ([2]; Hepatocytes Human): — | Metabolite Di-hydroxylation ([2]; Hepatocytes Human): — | Metabolite Glucuronidation ([2]; Hepatocytes Human): √ | Metabolite Hydrolysis (SN-38) ([2]; Hepatocytes Monkey): √ | Metabolite Hydrolysis (SDC-TRAP-0062) ([2]; Hepatocytes Monkey): — | Metabolite Hydrolysis (SDC-TRAP-0062) + N-dealkylation + glucuronide ([2]; Hepatocytes Monkey): — | Metabolite Hydrolysis (SN-38) + glucuronidation ([2]; Hepatocytes Monkey): √ | Metabolite Hydrolysis (SN-38) + hydroxylation + glucuronidation ([2]; Hepatocytes Monkey): √ | Metabolite Hydrolysis (SDC-TRAP-0062) + glucuronidation ([2]; Hepatocytes Monkey): — | Metabolite Hydrolysis (SDC-TRAP-0062) + oxidation + glucuronide ([2]; Hepatocytes Monkey): — | Metabolite Hydrolysis (SDC-TRAP-0062) + di-oxidation + glucuronide ([2]; Hepatocytes Monkey): — | Metabolite Hydrolysis (SDC-TRAP-0062) + H2O (ring opened) + glucuronide ([2]; Hepatocytes Monkey): — | Metabolite Hydroxylation ([2]; Hepatocytes Monkey): — | Metabolite Carboxylate form ([2]; Hepatocytes Monkey): — | Metabolite Di-hydroxylation ([2]; Hepatocytes Monkey): — | Metabolite Hydrolysis (SN-38) ([2]; Hepatocytes Mouse): — | Metabolite Hydrolysis (SN-38) + H2O (carboxylate form) ([2]; Hepatocytes Mouse): — | Metabolite Hydrolysis (SDC-TRAP-0062) ([2]; Hepatocytes Mouse): — | Metabolite Hydrolysis (SDC-TRAP-0062) + N-dealkylation + glucuronide ([2]; Hepatocytes Mouse): — | Metabolite Hydrolysis (SN-38) + glucuronidation ([2]; Hepatocytes Mouse): — | Metabolite Hydrolysis (SN-38) + hydroxylation + glucuronidation ([2]; Hepatocytes Mouse): — | Metabolite Hydrolysis (SDC-TRAP-0062) + glucuronidation ([2]; Hepatocytes Mouse): — | Metabolite Hydrolysis (SDC-TRAP-0062) + oxidation + glucuronide ([2]; Hepatocytes Mouse): — | Metabolite Hydrolysis (SDC-TRAP-0062) + di-oxidation + glucuronide ([2]; Hepatocytes Mouse): — | Metabolite Hydrolysis (SDC-TRAP-0062) + H2O (ring opened) + glucuronide ([2]; Hepatocytes Mouse): — | Metabolite Hydroxylation ([2]; Hepatocytes Mouse): — | Metabolite Carboxylate form ([2]; Hepatocytes Mouse): — | Metabolite Di-hydroxylation ([2]; Hepatocytes Mouse): — | Metabolite Glucuronidation ([2]; Hepatocytes Mouse): √ | Metabolite Hydrolysis (SN-38) ([2]; Hepatocytes Rat): — | Metabolite Hydrolysis (SN-38) + H2O (carboxylate form) ([2]; Hepatocytes Rat): — | Metabolite Hydrolysis (SDC-TRAP-0062) ([2]; Hepatocytes Rat): — | Metabolite Hydrolysis (SDC-TRAP-0062) + N-dealkylation + glucuronide ([2]; Hepatocytes Rat): — | Metabolite Hydrolysis (SN-38) + glucuronidation ([2]; Hepatocytes Rat): √ | Metabolite Hydrolysis (SN-38) + hydroxylation + glucuronidation ([2]; Hepatocytes Rat): — | Metabolite Hydrolysis (SDC-TRAP-0062) + glucuronidation ([2]; Hepatocytes Rat): — | Metabolite Hydrolysis (SDC-TRAP-0062) + oxidation + glucuronide ([2]; Hepatocytes Rat): — | Metabolite Hydrolysis (SDC-TRAP-0062) + di-oxidation + glucuronide ([2]; Hepatocytes Rat): — | Metabolite Hydrolysis (SDC-TRAP-0062) + H2O (ring opened) + glucuronide ([2]; Hepatocytes Rat): — | Metabolite Hydroxylation ([2]; Hepatocytes Rat): — | Metabolite Carboxylate form ([2]; Hepatocytes Rat): — | Metabolite Di-hydroxylation ([2]; Hepatocytes Rat): — | Metabolite Hydrolysis (SN-38) ([2]; Mouse in vivo Plasma 6 h): √ | Metabolite Hydrolysis (SN-38) + H2O (carboxylate form) ([2]; Mouse in vivo Plasma 6 h): √ | Metabolite Hydrolysis (SDC-TRAP-0062) ([2]; Mouse in vivo Plasma 6 h): √ | Metabolite Hydrolysis (SDC-TRAP-0062) + N-dealkylation + glucuronide ([2]; Mouse in vivo Plasma 6 h): √ | Metabolite Hydrolysis (SN-38) + glucuronidation ([2]; Mouse in vivo Plasma 6 h): √ | Metabolite Hydrolysis (SN-38) + hydroxylation + glucuronidation ([2]; Mouse in vivo Plasma 6 h): — | Metabolite Hydrolysis (SDC-TRAP-0062) + glucuronidation ([2]; Mouse in vivo Plasma 6 h): √ | Metabolite Hydrolysis (SDC-TRAP-0062) + oxidation + glucuronide ([2]; Mouse in vivo Plasma 6 h): √ | Metabolite Hydrolysis (SDC-TRAP-0062) + di-oxidation + glucuronide ([2]; Mouse in vivo Plasma 6 h): √ | Metabolite Hydrolysis (SDC-TRAP-0062) + H2O (ring opened) + glucuronide ([2]; Mouse in vivo Plasma 6 h): √ | Metabolite Hydroxylation ([2]; Mouse in vivo Plasma 6 h): — | Metabolite Carboxylate form ([2]; Mouse in vivo Plasma 6 h): √ | Metabolite Di-hydroxylation ([2]; Mouse in vivo Plasma 6 h): — | Metabolite Glucuronidation ([2]; Mouse in vivo Plasma 6 h): √ | Metabolite Hydrolysis (SN-38) ([2]; Mouse in vivo Tumor 24 h): √ | Metabolite Hydrolysis (SN-38) + H2O (carboxylate form) ([2]; Mouse in vivo Tumor 24 h): √ | Metabolite Hydrolysis (SDC-TRAP-0062) ([2]; Mouse in vivo Tumor 24 h): √ | Metabolite Hydrolysis (SDC-TRAP-0062) + N-dealkylation + glucuronide ([2]; Mouse in vivo Tumor 24 h): — | Metabolite Hydrolysis (SN-38) + glucuronidation ([2]; Mouse in vivo Tumor 24 h): √ | Metabolite Hydrolysis (SN-38) + hydroxylation + glucuronidation ([2]; Mouse in vivo Tumor 24 h): — | Metabolite Hydrolysis (SDC-TRAP-0062) + glucuronidation ([2]; Mouse in vivo Tumor 24 h): √ | Metabolite Hydrolysis (SDC-TRAP-0062) + oxidation + glucuronide ([2]; Mouse in vivo Tumor 24 h): — | Metabolite Hydrolysis (SDC-TRAP-0062) + di-oxidation + glucuronide ([2]; Mouse in vivo Tumor 24 h): — | Metabolite Hydrolysis (SDC-TRAP-0062) + H2O (ring opened) + glucuronide ([2]; Mouse in vivo Tumor 24 h): — | Metabolite Hydroxylation ([2]; Mouse in vivo Tumor 24 h): — | Metabolite Carboxylate form ([2]; Mouse in vivo Tumor 24 h): √ | Metabolite Di-hydroxylation ([2]; Mouse in vivo Tumor 24 h): — | Metabolite Glucuronidation ([2]; Mouse in vivo Tumor 24 h): √
